Measured values taken from ChEMBL document CHEMBL1144059, “Interference of linoleic acid fraction in some receptor binding assays” (J Nat Prod, 1999).

What was measured:
[1] = target: T1, Adenosine receptor A1 (Rattus norvegicus) (UniProt P25099); assay: Displacement of [3H]DPCPX from rat adenosine A1 receptor at 10 uM by liquid scintillation counting
T1 sequence (whole entry): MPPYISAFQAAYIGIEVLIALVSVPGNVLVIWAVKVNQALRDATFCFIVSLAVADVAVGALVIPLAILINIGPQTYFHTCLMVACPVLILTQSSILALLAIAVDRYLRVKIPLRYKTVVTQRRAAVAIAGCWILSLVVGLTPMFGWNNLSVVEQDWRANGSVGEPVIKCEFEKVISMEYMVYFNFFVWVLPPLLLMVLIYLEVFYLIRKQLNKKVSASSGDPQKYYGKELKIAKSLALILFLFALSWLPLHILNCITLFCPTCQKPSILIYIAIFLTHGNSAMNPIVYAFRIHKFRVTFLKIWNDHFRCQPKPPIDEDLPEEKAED

Adenosine receptor A1 = target: T2, Adenosine receptor A1 (Rattus norvegicus, UniProt P25099); assay: Displacement of [3H]DPCPX from rat adenosine A1 receptor by liquid scintillation counting
T2 sequence (P25099 whole entry): T1 sequence (whole entry)

Bos taurus [2] = species: Bos taurus; assay: Displacement of [3H]nitrobenzylthiosine from nucleoside transport protein in calf lung membrane at 0.1 mM; format: cell membranes
Bos taurus [3] = species: Bos taurus; assay: Displacement of [3H]nitrobenzylthiosine from nucleoside transport protein in calf lung membrane at 1 mM; format: cell membranes
Bos taurus [4] = species: Bos taurus; assay: Displacement of [3H]nitrobenzylthiosine from nucleoside transport protein in calf lung membrane at 10 uM; format: cell membranes
Rattus norvegicus [5] = species: Rattus norvegicus; assay: Displacement of [3H]naloxone from rat opioid receptor at 10 uM
Rattus norvegicus [6] = species: Rattus norvegicus; assay: Displacement of [3H]naloxone from rat opioid receptor at 0.1 mM
[7] = target: T1, Adenosine receptor A1 (Rattus norvegicus); assay: Displacement of [3H]DPCPX from rat adenosine A1 receptor at 0.1 mM by liquid scintillation counting
[8] = target: T1, Adenosine receptor A1 (Rattus norvegicus); assay: Displacement of [3H]DPCPX from rat brain adenosine A1 receptor at 56 uM assessed per mg of protein by saturation analysis
[9] = target: T1, Adenosine receptor A1 (Rattus norvegicus); assay: Displacement of [3H]DPCPX from rat adenosine A1 receptor at 1 mM by liquid scintillation counting
Rattus norvegicus [10] = species: Rattus norvegicus; assay: Displacement of [3H]naloxone from rat opioid receptor at 1 mM

Activity [1]: 85%
IC50 (Adenosine receptor A1): 65 µM
Activity (Bos taurus [2]): 100%
Activity (Bos taurus [3]): < 0%
Activity (Bos taurus [4]): 100%
Activity (Rattus norvegicus [5]): 100%
Activity (Rattus norvegicus [6]): 42%
Activity [7]: 3%
Activity [8]: 143 fmol
Activity [9]: 0%
Activity (Rattus norvegicus [10]): > 100%
Structure (SMILES): CCCCC/C=C\C/C=C\CCCCCCCC(=O)O [LINOLEIC ACID]
